Measured values taken from article PMC10045298, “In Vitro Pharmacokinetic Behavior of Antiviral 3-Amidinophenylalanine Derivatives in Rat, Dog and Monkey Hepatocytes” (Biomedicines, 2023).
pKi: −log10 of the molar value. Entries after “also recorded” stand apart in the source; their conditions may differ. Read-outs that look alike come from different tables or passages of the source.

Tests used:
SARS-CoV-2 = tested on: SARS-CoV-2; set-up: method as in PMID 32703818; conditions: Calu-3 cells (airway epithelial cells) infected with SARS-CoV-2; cited from earlier work
CYP1A2 = conditions: cited from earlier work
cynomolgus monkey CYP1A2 = conditions: cited from earlier work
CYP2C9 = conditions: cited from earlier work
CYP2C19 = conditions: cited from earlier work
human serum albumin = conditions: cited from earlier work
human CYP3A4 = conditions: cited from earlier work
dog primary hepatocytes = assay: Depletion of inhibitors in dog primary hepatocyte suspension (LC-MS/MS), PK prediction; assay type: in vitro ADME; conditions: for Extraction Ratio EH / Classification / Predicted Cl CLH: dog; for Depletion of parent compound (in words): 10 µM; for Classification: 0.3 cut-off of E between low and intermediate extraction; for Predicted Cl CLH: fu = 1
Description: (§1) Cryopreserved rat, dog and cynomolgus monkey primary hepatocytes were obtained from Primacyt (Primacyt, Schwerin, Germany). Hepatocytes were thawed using cryopreserved hepatocyte thawing medium (Primacyt, Schwerin, Germany), and cells were centrifuged (10 min, 100× g, 20 °C) to remove supernatants. The viability of hepatocytes was examined by the Trypan blue exclusion method, and it was confirmed that more than 90% of the cells were alive. Cell suspensions were then diluted with serum-free maintenance medium (Primacyt, Schwerin, Germany) after cell counting in Bürker chamber to the appropriate concentration (original concentration of the viable hepatocytes was 10^7 cells/mL).
(§2) Stock solutions of MI-463, MI-472, MI-485 and MI-1900 (10 mM) in dimethyl-sulfoxide were kept at −20 °C. Time courses of the unchanged amount of the inhibitors (in %) after incubation with hepatocytes were measured. Each compound was incubated in cell suspension (at the concentration of 5 × 10^5 cells/mL in 6-well plates) at constant and low-speed shaking at 37 °C in a humid atmosphere containing 5% CO2. […] Cells were incubated with serum-free maintenance medium either without or with each selected MI for 5 h. At various time points (0, 30, 60, 120, 180, and 300 min), the incubation mixtures were sampled (aliquots: 0.15 mL) and terminated by the addition of 0.1 mL ice-cold acetonitrile. The cell debris was separated by centrifugation, and the supernatants were analyzed by LC-MS/MS for quantitation of the remaining amount of the inhibitors.
(§3) For the LC-MS/MS investigations, 120 μL from the incubation mixture samples obtained as described above was removed and mixed with 315 μL chilled acetonitrile and 15 μL triphenylphosphate solution (TPP; 12000 ng/mL in acetonitrile) used as internal standard for the quantitation. After vortex mixing, the samples were centrifuged at 4 °C and 13300 RPM for 10 min. The supernatant was filtered through a PVDF syringe filter of 0.22 μm pore diameter, then transferred to chromatographic vials.
(§4) The LC-MS/MS instrument used for analyzing the MI compounds was a Shimadzu LCMS 8030+ system operated with an electrospray ion source (ESI) in positive multiple reaction monitoring (MRM) mode. A Phenomenex Kinetex C18 EVO 100 × 4.6 mm ID (2.6 µm particle size) column equipped with a 40 × 2 mm C18 guard column was used for the chromatographic separation. Gradient elution was used with eluents “A”: 50 mM ammonium acetate in water (pH 5 set by acetic acid) and “B”: 0.1 v/v% formic acid in acetonitrile. The flow rate was 0.4 mL/min, a chromatographic run took 8 min. The column oven was set to 30 °C, and the autoinjector’s temperature was at 6 °C. The injected volume was 10 µL. Other MS parameters were as follows: interface 4.5 kV; interface temperature 350 °C; desolvation line 300 °C; heat block 400 °C; detector 1.78 kV, nebulizing gas (N2) 3 liters/min, drying gas (N2) 15 liters/min; collision gas (Ar) 230 kPa.
(§5) The intrinsic clearance for hepatocytes (Clint) [mL (min 5 × 10^5 cells) ^−1] was calculated from the decrease in the concentration of MI compounds as follows: Clint = β=ln2/t1/2 [28] For scaling up, the Clint value to obtain Clint per whole liver (g)/bw(kg), the cell concentration in liver, the average liver weight and average body weight parameters were used (Table 1). The value for hepatic clearance (ClH) was calculated as follows: ClH=Clintliver/bw∗fu∗Qplasma/(Clintliver/bw∗fu)+Qplasma where the flow rate of Qplasma = QH* plasma/blood ratio. To calculate ClH, the hepatic flow rate, plasma/blood ratio (Table 1) and fu = 1 values were used. (QH is the hepatic blood flow, while fu is the unbound fraction of the compound.) The hepatic extraction ratio was defined as E = ClH/QH, and the bioavailability (%) was F = (1 − E) * 100 [28, 31, 32, 33].

[1] = as above; assay type: in vitro ADME; conditions: dog, cryopreserved primary hepatocytes in suspension, dog hepatocytes, 10 µM inhibitor, 5 × 10^5 cells/mL, 0-300 min, scaled to liver/bw
Description: as §1, §2, §3, §4, §5

[2] = tested on: cynomolgus monkey primary hepatocytes; assay: Depletion of inhibitors in cynomolgus monkey primary hepatocyte suspension (LC-MS/MS), PK prediction; assay type: in vitro ADME; conditions: for Depletion of parent compound (in words): cynomolgus monkey hepatocytes, 10 µM, 0-300 min; for Extraction Ratio EH / Classification / Predicted Cl CLH: macaque; for Classification: 0.3 cut-off of E between low and intermediate extraction; for Predicted Cl CLH: fu = 1
Description: as §1, §2, §3, §4, §5

[3] = as above; assay type: in vitro ADME; conditions: cynomolgus monkey, cryopreserved primary hepatocytes in suspension; macaque hepatocytes, 10 µM inhibitor, 5 × 10^5 cells/mL, 0-300 min, scaled to liver/bw
Description: as §1, §2, §3, §4, §5

rat primary hepatocytes = assay: Depletion of inhibitors in rat primary hepatocyte suspension (LC-MS/MS), PK prediction; assay type: in vitro ADME; conditions: for Extraction Ratio EH / Classification / Predicted Cl CLH: rat; for Classification: 0.3 cut-off of E between low and intermediate extraction; for Predicted Cl CLH: fu = 1
Description: as §1, §2, §3, §4, §5

[4] = as above; assay type: in vitro ADME; conditions: cryopreserved primary hepatocytes in suspension; rat hepatocytes, 10 µM inhibitor, 5 × 10^5 cells/mL, 0-300 min, scaled to liver/bw
Description: as §1, §2, §3, §4, §5

TMPRSS2 = conditions: competitive inhibition; previous enzyme kinetic measurements; cited from earlier work
matriptase = conditions: previous enzyme kinetic measurements, cited from earlier work
H9N2 influenza virus = conditions: MDCK cells, matriptase-dependent; cited from earlier work

## N=C(N)c1cccc(C[C@H](NS(=O)(=O)c2cccc(-c3ccc(Cl)cc3Cl)c2)C(=O)N2CCC(CCN)CC2)c1.O=C(O)C(F)(F)F.O=C(O)C(F)(F)F [MI-432]
SARS-CoV-2
  SARS-CoV-2 virus titer: could successfully lower viral titers; also recorded: effectively decrease SARS-CoV-2 virus titer
CYP1A2
  Influence on CYP1A2 activity: did not influence the activity
Cynomolgus monkey CYP1A2
  Modulation of cynomolgus monkey CYP1A2: could modulate
CYP2C9
  Influence on CYP2C9 activity: did not influence the activity
CYP2C19
  Influence on CYP2C19 activity: did not influence the activity
Human serum albumin
  Binding to human serum albumin: did not bind to human serum albumin to a great extent
Human CYP3A4
  Modulation of human CYP3A4 function: could modulate

## COc1ccc(-c2cccc(S(=O)(=O)N[C@@H](Cc3cccc(C(=N)N)c3)C(=O)N3CCC(NC(=O)NC4CCCCC4)CC3)c2)c(OC)c1 [MI-463]
Dog primary hepatocytes
  Extraction Ratio EH: 0.299
  Classification: Low-extraction drug
  Predicted Cl CLH: 9.25
Dog primary hepatocytes; dog hepatocytes, 0-300 min
  Depletion of parent compound (in words): slowly decreased from 180 min; also recorded: pronounced stability against biotransformation
[1]
  CLint scaled at 10 µM: 19.5 mL/min/kg
CYP1A2
  Influence on CYP1A2 activity: did not influence the activity
Cynomolgus monkey CYP1A2
  Modulation of cynomolgus monkey CYP1A2: could modulate
CYP2C9
  Influence on CYP2C9 activity: did not influence the activity
[2]
  Depletion of parent compound (in words): elevated depletion rates
  Extraction Ratio EH: 0.121
  Classification: Low-extraction drug
  Predicted Cl CLH: 5.27
[3]
  CLint scaled at 10 µM: 6.58 mL/min/kg
CYP2C19
  Influence on CYP2C19 activity: did not influence the activity
Rat primary hepatocytes
  Extraction Ratio EH: 0.289
  Classification: Low-extraction drug
  Predicted Cl CLH: 15.97
Rat primary hepatocytes; rat hepatocytes, 10 µM, 0-300 min
  Depletion of parent compound (in words): elevated depletion rates
[4]
  CLint scaled at 10 µM: 31.9 mL/min/kg
TMPRSS2
  Ki: very low, nanomolar
Human serum albumin
  Binding to human serum albumin: did not bind to human serum albumin to a great extent
matriptase
  Ki: very low, nanomolar
Human CYP3A4
  Modulation of human CYP3A4 function: could modulate

## COc1ccc(-c2cccc(S(=O)(=O)N[C@@H](Cc3cccc(C(=N)N)c3)C(=O)N3CCC(N)CC3)c2)c(OC)c1 [MI-472]
Dog primary hepatocytes
  Extraction Ratio EH: 0.343
  Classification: Intermediate-extraction drug
  Predicted Cl CLH: 10.61
Dog primary hepatocytes; dog hepatocytes, 0-300 min
  Depletion of parent compound (in words): significantly depleted even at 30 min
[1]
  CLint scaled at 10 µM: 26.7 mL/min/kg
[2]
  Extraction Ratio EH: 0.190
  Classification: Low-extraction drug
  Predicted Cl CLH: 8.27
[3]
  CLint scaled at 10 µM: 12 mL/min/kg
Rat primary hepatocytes
  Extraction Ratio EH: 0.305
  Classification: Intermediate-extraction drug
  Predicted Cl CLH: 16.85
[4]
  CLint scaled at 10 µM: 35.6 mL/min/kg

## COc1ccc(-c2cccc(S(=O)(=O)N[C@@H](Cc3cccc(C(=N)N)c3)C(=O)N3CCC(NC(=O)NC(C)(C)C)CC3)c2)c(OC)c1 [MI-485]
Dog primary hepatocytes
  Extraction Ratio EH: 0.321
  Classification: Intermediate-extraction drug
  Predicted Cl CLH: 9.93
Dog primary hepatocytes; dog hepatocytes, 0-300 min
  Depletion of parent compound (in words): significantly depleted even at 30 min
[1]
  CLint scaled at 10 µM: 22.8 mL/min/kg
[2]
  Extraction Ratio EH: 0.183
  Classification: Low-extraction drug
  Predicted Cl CLH: 7.98
[3]
  CLint scaled at 10 µM: 11.4 mL/min/kg
H9N2 influenza virus
  Inhibition of H9N2 influenza virus replication: showed inhibition
Rat primary hepatocytes
  Extraction Ratio EH: 0.314
  Classification: Intermediate-extraction drug
  Predicted Cl CLH: 17.33
[4]
  CLint scaled at 10 µM: 37.8 mL/min/kg
matriptase; read-out: Ki
  pKi: > 8.30

## COc1ccc(-c2cccc(S(=O)(=O)N[C@@H](Cc3cccc(C(=N)N)c3)C(=O)N3CCN(C(=O)NC4CCCCC4)CC3)c2)c(OC)c1 [MI-1900]
Dog primary hepatocytes
  Extraction Ratio EH: 0.212
  Classification: Low-extraction drug
  Predicted Cl CLH: 6.56
Dog primary hepatocytes; dog hepatocytes, 10 µM inhibitor, 5 × 10^5 cells/mL, 0-300 min, scaled to liver/bw
  CLint scaled: 10.5 mL/min/kg
Dog primary hepatocytes; dog hepatocytes, 0-300 min
  Depletion of parent compound (in words): significantly depleted even at 30 min
[1]
  CLint scaled at 10 µM: 10.5 mL/min/kg
SARS-CoV-2
  SARS-CoV-2 virus titer: could successfully lower viral titers; also recorded: effectively decrease SARS-CoV-2 virus titer
CYP1A2
  Influence on CYP1A2 activity: did not influence the activity
Cynomolgus monkey CYP1A2
  Modulation of cynomolgus monkey CYP1A2: could modulate
CYP2C9
  Influence on CYP2C9 activity: did not influence the activity
[2]
  Depletion of parent compound (in words): depleted at the highest speed; also recorded: rapidly; also recorded: depleted faster
  Extraction Ratio EH: 0.230
  Classification: Low-extraction drug
  Predicted Cl CLH: 10.03
[3]
  CLint scaled at 10 µM: 16.1 mL/min/kg
CYP2C19
  Influence on CYP2C19 activity: did not influence the activity
Rat primary hepatocytes
  Extraction Ratio EH: 0.298
  Classification: Low-extraction drug
  Predicted Cl CLH: 16.43
[4]
  CLint scaled at 10 µM: 33.8 mL/min/kg
TMPRSS2
  Ki: very low, nanomolar
Human serum albumin
  Binding to human serum albumin: did not bind to human serum albumin to a great extent
matriptase
  Ki: very low, nanomolar
Human CYP3A4
  Modulation of human CYP3A4 function: could modulate
